In patent US9113629B2, “4-amino-6-(4-substituted-phenyl)-picolinates and 6-amino-2-(4-substituted-phenyl)-pyrimidine-4-carboxylates and their use as herbicides” (DOW AGROSCIENCES LLC, priority 2013, dated 2015):
Read-outs that look alike come from different tables or passages of the source.

Tests used:
[1] = system: Key Grass and Sedge Weeds as well as Grass Crops; assay: Post-emergent Test II herbicidal activity (Table 6); type: in vivo; conditions: post-emergence, 336 h; for pest or weed control at 70 g/ha: application rate 70 g ai/ha; for pest or weed control at 140 g/ha: application rate 140 g ai/ha
How it was run: (§1)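 Greenhouse post-emergent assay: seedlings (first/second true leaf) in Metro-Mix 360 were sprayed at 187 L/ha at a top rate plus twofold dilutions down to 1/16×; solvent-blank controls were included. Percent visual injury was read at 14 d.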

[2] = system: Key Broadleaf Weed and Crop Species; assay: Post-emergent Test II herbicidal activity (Table 5); type: in vivo; conditions: post-emergence, 336 h, post-emergent, 14 days after application; for pest or weed control at 70 g/ha: 70 g ai/ha; for pest or weed control at 140 g/ha: 140 g ai/ha
How it was run: as §1

[3] = CYPES: yellow nutsedge (Cyperus esculentus), read-out: Visual Growth Reduction (%) 14 Days After Application, CYPES
[4] = DIGSA: crabgrass (Digitaria sanguinalis), read-out: Visual Growth Reduction (%) 14 Days After Application, DIGSA
[5] = ECHCG: barnyardgrass (Echinochloa crus-galli), read-out: Visual Growth Reduction (%) 14 Days After Application, ECHCG
[6] = ORYSA: rice (Oryza sativa), read-out: Visual Growth Reduction (%) 14 Days After Application, ORYSA
[7] = SETFA: giant foxtail (Setaria faberi), read-out: Visual Growth Reduction (%) 14 Days After Application, SETFA
[8] = SORVU: grain sorghum (Sorghum vulgare), read-out: Visual Growth Reduction (%) 14 Days After Application, SORVU
[9] = TRZSS (wheat, Triticum aestivum), read-out: Visual Growth Reduction (%) 14 Days After Application, TRZSS
[10] = ZEAMX: maize, corn (Zea mays), read-out: Visual Growth Reduction (%) 14 Days After Application, ZEAMX
[11] = ABUTH: velvetleaf (Abutilon theophrasti), read-out: Visual Growth Reduction (%) 14 Days After Application ABUTH
[12] = AMARE: redroot pigweed (Amaranthus retroflexus), read-out: Visual Growth Reduction (%) 14 Days After Application AMARE
[13] = BRSNN: oilseed-rape, canola (Brassica napus), read-out: Visual Growth Reduction (%) 14 Days After Application BRSNN
[14] = CHEAL: lambsquarters (Chenopodium album), read-out: Visual Growth Reduction (%) 14 Days After Application CHEAL
[15] = EPHHL: wild poinsettia (Euphorbia heterophylla), read-out: Visual Growth Reduction (%) 14 Days After Application EPHHL
[16] = HELAN: sunflower (Helianthus annuus), read-out: Visual Growth Reduction (%) 14 Days After Application HELAN
[17] = VIOTR: wild pansy (Viola tricolor), read-out: Visual Growth Reduction (%) 14 Days After Application VIOTR

SMILES: COC(=O)c1nc(-c2ccc(C#N)cc2F)c(F)c(N)c1Cl [Compound 44, Methyl 4-amino-3-chloro-6-(4-cyano-2-fluorophenyl)-5-fluoropicolinate]
- pest or weed control at 70 g/ha [1, 3]: 30 to 44%
- pest or weed control at 140 g/ha [1, 3]: 45 to 59%
- pest or weed control at 70 g/ha [1, 4]: 0 to 29%
- pest or weed control at 140 g/ha [1, 4]: 0 to 29%
- pest or weed control at 70 g/ha [1, 5]: 0 to 29%
- pest or weed control at 140 g/ha [1, 5]: 0 to 29%
- pest or weed control at 70 g/ha [1, 6]: 0 to 29%
- pest or weed control at 140 g/ha [1, 6]: 0 to 29%
- pest or weed control at 70 g/ha [1, 7]: 0 to 29%
- pest or weed control at 140 g/ha [1, 7]: 0 to 29%
- pest or weed control at 70 g/ha [1, 8]: 0 to 29%
- pest or weed control at 140 g/ha [1, 8]: 0 to 29%
- pest or weed control at 70 g/ha [1, 9]: 30 to 44%
- pest or weed control at 140 g/ha [1, 9]: 30 to 44%
- pest or weed control at 70 g/ha [1, 10]: 0 to 29%
- pest or weed control at 140 g/ha [1, 10]: 0 to 29%
- pest or weed control at 70 g/ha [2, 11]: 30 to 44%
- pest or weed control at 140 g/ha [2, 11]: 60 to 74%
- pest or weed control at 70 g/ha [2, 12]: 75 to 84%
- pest or weed control at 140 g/ha [2, 12]: 95 to 100%
- pest or weed control at 70 g/ha [2, 13]: 0 to 29%
- pest or weed control at 140 g/ha [2, 13]: 0 to 29%
- pest or weed control at 70 g/ha [2, 14]: 75 to 84%
- pest or weed control at 140 g/ha [2, 14]: 85 to 94%
- pest or weed control at 70 g/ha [2, 15]: 85 to 94%
- pest or weed control at 140 g/ha [2, 15]: 95 to 100%
- pest or weed control at 70 g/ha [2, 16]: 85 to 94%
- pest or weed control at 140 g/ha [2, 16]: 95 to 100%
- pest or weed control at 70 g/ha [2, 17]: 0 to 29%
- pest or weed control at 140 g/ha [2, 17]: 0 to 29%
